Laboratory results: ChEMBL document CHEMBL3632586, “Designing, synthesis of selective and high-affinity chalcone-benzothiazole hybrids as Brugia malayi thymidylate kinase inhibitors: In vitro validation and docking studies” (Eur J Med Chem, 2015)
Values after ≈ are worked out from the molar mass of the structure shown. Each block holds one molecule with its values, some of them ahead of it.

Assays:
[1] = Inhibition of recombinant Brugia malayi TMK using dTMP as substrate by pyruvate kinase/lactate dehydrogenase coupled assay
[2] = system: Brugia malayi; assay: Antifilarial activity against adult Brugia malayi assessed as reduction in viability at 0.15 uM/ml after 24 to 48 hrs by MTT assay; type: functional, organism-based
[3] = system: Brugia malayi; assay: Antifilarial activity against Brugia malayi microfilariae assessed as motility reduction at 10 uM/ml after 1 hr by microscopic analysis; type: functional
[4] = system: Brugia malayi; assay: Antifilarial activity against Brugia malayi microfilariae assessed as motility reduction at 5 uM/ml after 1 hr by microscopic analysis; type: functional
[5] = system: Brugia malayi; assay: Antifilarial activity against adult Brugia malayi assessed as motility reduction at 10 uM/ml after 1 hr by microscopic analysis; type: functional
[6] = system: Brugia malayi; assay: Antifilarial activity against Brugia malayi microfilariae assessed as motility reduction at 0.15 uM/ml after 1 hr by microscopic analysis; type: functional, organism-based
[7] = system: Brugia malayi; assay: Antifilarial activity against adult Brugia malayi assessed as motility reduction at 1.25 uM/ml after 1 hr by microscopic analysis; type: functional
[8] = system: Brugia malayi; assay: Antifilarial activity against adult Brugia malayi assessed as motility reduction at 2.5 uM/ml after 1 hr by microscopic analysis; type: functional
[9] = system: Brugia malayi; assay: Antifilarial activity against adult Brugia malayi assessed as reduction in viability at 2.5 uM/ml after 24 to 48 hrs by MTT assay; type: functional
[10] = system: Brugia malayi; assay: Antifilarial activity against Brugia malayi microfilariae assessed as motility reduction at 0.6 uM/ml after 1 hr by microscopic analysis; type: functional, organism-based
[11] = system: Brugia malayi; assay: Antifilarial activity against adult Brugia malayi assessed as reduction in viability at 10 uM/ml after 24 to 48 hrs by MTT assay; type: functional
[12] = system: Brugia malayi; assay: Antifilarial activity against Brugia malayi microfilariae assessed as motility reduction after 1 hr by microscopic analysis; type: functional, organism-based
[13] = system: Brugia malayi; assay: Antifilarial activity against adult Brugia malayi assessed as reduction in viability at 0.6 uM/ml after 24 to 48 hrs by MTT assay; type: functional, organism-based
[14] = system: Brugia malayi; assay: Antifilarial activity against adult Brugia malayi assessed as motility reduction at 0.3 uM/ml after 1 hr by microscopic analysis; type: functional, organism-based
[15] = system: Brugia malayi; assay: Antifilarial activity against adult Brugia malayi assessed as reduction in viability at 0.3 uM/ml after 24 to 48 hrs by MTT assay; type: functional, organism-based
[16] = system: Brugia malayi; assay: Antifilarial activity against adult Brugia malayi assessed as motility reduction at 5 uM/ml after 1 hr by microscopic analysis; type: functional
[17] = system: Brugia malayi; assay: Antifilarial activity against adult Brugia malayi assessed as reduction in viability at 1.25 uM/ml after 24 to 48 hrs by MTT assay; type: functional
[18] = system: Brugia malayi; assay: Antifilarial activity against adult Brugia malayi assessed as reduction in viability at 5 uM/ml after 24 to 48 hrs by MTT assay; type: functional
[19] = system: Brugia malayi; assay: Antifilarial activity against adult Brugia malayi assessed as motility reduction at 0.15 uM/ml after 1 hr by microscopic analysis; type: functional, organism-based
[20] = system: Brugia malayi; assay: Antifilarial activity against Brugia malayi microfilariae assessed as motility reduction at 1.25 uM/ml after 1 hr by microscopic analysis; type: functional
[21] = system: Brugia malayi; assay: Antifilarial activity against adult Brugia malayi assessed as motility reduction after 1 hr by microscopic analysis; type: functional, organism-based
[22] = system: Brugia malayi; assay: Antifilarial activity against Brugia malayi microfilariae assessed as motility reduction at 2.5 uM/ml after 1 hr by microscopic analysis; type: functional
[23] = system: Brugia malayi; assay: Antifilarial activity against adult Brugia malayi assessed as motility reduction at 0.6 uM/ml after 1 hr by microscopic analysis; type: functional, organism-based
[24] = system: Brugia malayi; assay: Antifilarial activity against Brugia malayi microfilariae assessed as motility reduction at 0.3 uM/ml after 1 hr by microscopic analysis; type: functional, organism-based
[25] = Therapeutic index, ratio of CC50 for monkey VERO cells to IC50 for adult Brugia malayi; type: cell-based; conditions: for selectivity ratio: Vero cells, read-out: Ratio CC50/IC50
[26] = Therapeutic index, ratio of CC50 for monkey VERO cells to IC50 for Brugia malayi microfilariae; type: cell-based; conditions: for selectivity ratio: Vero cells, read-out: Ratio CC50/IC50
[27] = Cytotoxicity against African green monkey Vero cells after 72 hrs by resazurin dye-based fluorometric analysis; type: cell-based; conditions: chlorocebus sabaeus
[28] = system: Brugia malayi; assay: Antifilarial activity against adult Brugia malayi assessed as reduction in viability at 0.625 uM/ml after 24 to 48 hrs by MTT assay; type: functional
[29] = system: Brugia malayi; assay: Antifilarial activity against Brugia malayi microfilariae assessed as motility reduction at 0.625 uM/ml after 1 hr by microscopic analysis; type: functional
[30] = system: Brugia malayi; assay: Antifilarial activity against adult Brugia malayi assessed as motility reduction at 0.625 uM/ml after 1 hr by microscopic analysis; type: functional

Ki [1]: 27.1 µM
Molecule: CCCc1cc(/C=N/Nc2nc3ccccc3s2)cc(/C=C/C(=O)c2ccc(OC)c(OC)c2)c1O

MIC [12]: 10 µM
MIC [21]: 8.9 µM
Molecule: IVERMECTIN [listing 1 of 2 here]
inhibition [2]: 15.7%
inhibition [3]: 100%
inhibition [4]: 75%
inhibition [5]: 100%
inhibition [6]: 0%
inhibition [7]: 100%
inhibition [8]: 100%
inhibition [9]: 50.5%
inhibition [10]: 50%
inhibition [11]: 76%
inhibition [13]: 22.9%
inhibition [14]: 50%
inhibition [15]: 10.7%
inhibition [16]: 100%
inhibition [17]: 34.9%
inhibition [18]: 62.9%
inhibition [19]: 1%
inhibition [20]: 75%
inhibition [22]: 75%
inhibition [23]: 100%
inhibition [24]: 0%

IC50 [12]: 2.64 µM
MIC [12]: 10 µM (≈ 4.28 µg/mL)
IC50 [21]: 4.34 µM
MIC [21]: 10 µM (≈ 4.28 µg/mL)
Ki [1]: 2.49 µM
Molecule: CCc1cc(/C=N/Nc2nc3ccccc3s2)cc(/C=C/C(=O)c2ccccc2)c1O
inhibition at 10 µM [3]: 100%
inhibition at 5 µM [4]: 75%
inhibition at 10 µM [5]: 100%
inhibition at 1.25 µM [7]: 1%
inhibition at 2.5 µM [8]: 1%
inhibition at 2.5 µM [9]: 30%
inhibition at 10 µM [11]: 90.4%
selectivity ratio [25]: 11.2
selectivity ratio [26]: 18.4
inhibition at 5 µM [16]: 50%
CC50 at 72 h [27]: 48.6 µM
inhibition at 1.25 µM [17]: 10.5%
inhibition at 5 µM [18]: 48%
inhibition at 1.25 µM [20]: 1%
inhibition at 2.5 µM [22]: 75%

Molecule: IVERMECTIN [listing 2 of 2 here]
Ratio CC50/IC50 ([25]; vero): 29.5
Ratio CC50/IC50 ([26]; vero): 13.28

Ki [1]: 26.6 µM
Molecule: CCCc1cc(/C=N/Nc2nc3ccccc3s2)cc(/C=C/C(=O)c2ccc(Cl)cc2)c1O

IC50 [12]: 1.63 µM
MIC [12]: 5 µM (≈ 2.24 µg/mL)
IC50 [21]: 2.12 µM
MIC [21]: 5 µM (≈ 2.24 µg/mL)
Ki [1]: 2.02 µM
Molecule: CC(C)c1cc(/C=N/Nc2nc3ccccc3s2)cc(/C=C/C(=O)c2cccs2)c1O
inhibition at 0.625 µM [28]: 8.7%
inhibition at 0.625 µM [29]: 1%
inhibition at 5 µM [4]: 100%
inhibition at 1.25 µM [7]: 1%
inhibition at 2.5 µM [8]: 50%
inhibition at 2.5 µM [9]: 40.3%
selectivity ratio [25]: 44.9
inhibition at 0.625 µM [30]: 1%
selectivity ratio [26]: 58.5
inhibition at 5 µM [16]: 100%
CC50 at 72 h [27]: 95.3 µM
inhibition at 1.25 µM [17]: 9.3%
inhibition at 5 µM [18]: 85%
inhibition at 1.25 µM [20]: 50%
inhibition at 2.5 µM [22]: 75%

Ki [1]: 4.69 µM
Molecule: Cc1ccc(C(=O)/C=C/c2cc(/C=N/Nc3nc4ccccc4s3)cc(C(C)(C)C)c2O)cc1

Ki [1]: 4.89 µM
Molecule: CCC(C)c1cc(/C=N/Nc2nc3ccccc3s2)cc(/C=C/C(=O)c2ccc(OC)cc2)c1O (stereo not drawn)

Ki [1]: 3.09 µM
Molecule: COc1ccc(C(=O)/C=C/c2cc(/C=N/Nc3nc4ccccc4s3)cc(C(C)C)c2O)cc1

Ki [1]: 21.6 µM
Molecule: CC(C)c1cc(/C=N/Nc2nc3ccccc3s2)cc(/C=C/C(=O)c2ccc(F)cc2)c1O

Ki [1]: 16.5 µM
Molecule: Cc1cc(/C=N/Nc2nc3ccccc3s2)cc(/C=C/C(=O)c2ccccc2)c1O

Ki [1]: 20.3 µM
Molecule: CC(C)(C)c1cc(/C=N/Nc2nc3ccccc3s2)cc(/C=C/C(=O)c2ccccc2)c1O

Ki [1]: 30.4 µM
Molecule: CCc1cc(/C=N/Nc2nc3ccccc3s2)cc(/C=C/C(=O)c2ccc(OC)cc2)c1O

Ki [1]: 3.17 µM
Molecule: CC(C)(C)c1cc(/C=N/Nc2nc3ccccc3s2)cc(/C=C/C(=O)c2ccc(F)cc2)c1O

Ki [1]: 50.6 µM
Molecule: COc1ccc(C(=O)/C=C/c2cc(/C=N/Nc3nc4ccccc4s3)cc(C(C)C)c2O)cc1OC

Ki [1]: 7.91 µM
Molecule: CCC(C)c1cc(/C=N/Nc2nc3ccccc3s2)cc(/C=C/C(=O)c2ccc(F)cc2)c1O (stereo not drawn)

Ki [1]: 22.8 µM
Molecule: CC(C)c1cc(/C=N/Nc2nc3ccccc3s2)cc(/C=C/C(=O)c2ccc(Cl)cc2)c1O
